One series concerns the target KDM6B (Homo sapiens, UniProt O15054). Description: KDM demethylase inhibition (IC50). It counts as biochemical.
The target of another series is T1, KDM2A (Homo sapiens, UniProt Q9Y2K7).
T1 sequence (Q9Y2K7 1-1162): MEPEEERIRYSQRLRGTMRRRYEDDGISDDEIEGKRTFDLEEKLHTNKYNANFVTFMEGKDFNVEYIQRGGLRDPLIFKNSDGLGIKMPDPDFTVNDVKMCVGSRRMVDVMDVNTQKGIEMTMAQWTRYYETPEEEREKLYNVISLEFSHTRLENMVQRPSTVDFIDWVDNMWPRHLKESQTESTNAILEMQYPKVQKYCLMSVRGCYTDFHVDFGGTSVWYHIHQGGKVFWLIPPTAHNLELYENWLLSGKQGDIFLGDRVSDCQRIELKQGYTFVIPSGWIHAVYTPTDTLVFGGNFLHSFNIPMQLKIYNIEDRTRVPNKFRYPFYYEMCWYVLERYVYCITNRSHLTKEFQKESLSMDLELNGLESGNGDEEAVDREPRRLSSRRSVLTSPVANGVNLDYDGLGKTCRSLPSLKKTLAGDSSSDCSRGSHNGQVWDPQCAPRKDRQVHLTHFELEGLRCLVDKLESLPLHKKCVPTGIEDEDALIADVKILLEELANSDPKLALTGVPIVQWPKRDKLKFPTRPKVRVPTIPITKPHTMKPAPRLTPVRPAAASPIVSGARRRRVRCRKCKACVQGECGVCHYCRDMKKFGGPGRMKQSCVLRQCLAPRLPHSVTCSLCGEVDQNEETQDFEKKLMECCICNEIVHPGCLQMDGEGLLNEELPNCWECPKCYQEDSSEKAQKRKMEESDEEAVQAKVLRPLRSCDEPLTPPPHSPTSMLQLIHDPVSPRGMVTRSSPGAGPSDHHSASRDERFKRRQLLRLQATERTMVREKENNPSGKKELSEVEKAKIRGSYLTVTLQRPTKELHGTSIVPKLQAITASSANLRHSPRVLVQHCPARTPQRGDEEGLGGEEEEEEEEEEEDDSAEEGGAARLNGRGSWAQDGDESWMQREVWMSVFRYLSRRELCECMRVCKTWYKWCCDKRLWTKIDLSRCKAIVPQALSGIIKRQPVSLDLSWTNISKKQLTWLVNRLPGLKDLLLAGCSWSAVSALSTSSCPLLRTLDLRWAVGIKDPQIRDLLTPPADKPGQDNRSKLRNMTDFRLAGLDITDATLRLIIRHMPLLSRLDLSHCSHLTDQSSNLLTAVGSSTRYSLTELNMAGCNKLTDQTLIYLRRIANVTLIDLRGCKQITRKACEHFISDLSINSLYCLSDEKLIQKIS
Description: KDM demethylase inhibition (IC50). It counts as biochemical.

For a further series, the target named is T2, KDM4C (Homo sapiens, UniProt Q9H3R0).
T2 sequence (Q9H3R0 1-1056): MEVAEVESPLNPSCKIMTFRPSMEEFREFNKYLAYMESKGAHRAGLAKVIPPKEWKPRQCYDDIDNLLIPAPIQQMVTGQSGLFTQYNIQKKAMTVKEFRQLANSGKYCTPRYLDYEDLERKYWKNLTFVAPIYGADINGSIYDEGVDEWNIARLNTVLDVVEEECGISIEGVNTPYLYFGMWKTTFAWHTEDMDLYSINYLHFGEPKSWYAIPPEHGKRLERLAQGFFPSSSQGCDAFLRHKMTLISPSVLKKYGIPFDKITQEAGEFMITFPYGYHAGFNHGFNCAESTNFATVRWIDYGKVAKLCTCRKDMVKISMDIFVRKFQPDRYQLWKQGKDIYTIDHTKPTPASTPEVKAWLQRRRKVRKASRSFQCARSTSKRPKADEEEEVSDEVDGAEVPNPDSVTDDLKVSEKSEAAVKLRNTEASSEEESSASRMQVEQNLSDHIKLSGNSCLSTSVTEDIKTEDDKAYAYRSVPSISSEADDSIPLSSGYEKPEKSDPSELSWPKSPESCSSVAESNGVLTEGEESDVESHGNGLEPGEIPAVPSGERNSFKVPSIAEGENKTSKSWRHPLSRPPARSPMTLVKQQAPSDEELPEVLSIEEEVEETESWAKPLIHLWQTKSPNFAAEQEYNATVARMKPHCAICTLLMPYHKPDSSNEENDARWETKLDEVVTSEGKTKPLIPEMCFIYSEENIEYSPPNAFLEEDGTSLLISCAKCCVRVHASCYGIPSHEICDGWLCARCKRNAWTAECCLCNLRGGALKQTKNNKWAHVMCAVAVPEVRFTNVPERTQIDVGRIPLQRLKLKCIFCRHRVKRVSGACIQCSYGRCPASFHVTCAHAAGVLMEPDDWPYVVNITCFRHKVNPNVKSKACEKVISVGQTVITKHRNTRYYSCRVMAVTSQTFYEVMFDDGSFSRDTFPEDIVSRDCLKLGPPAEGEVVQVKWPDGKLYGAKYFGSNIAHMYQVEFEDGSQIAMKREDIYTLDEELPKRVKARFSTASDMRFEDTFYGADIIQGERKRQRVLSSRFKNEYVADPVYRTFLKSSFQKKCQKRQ
Description: KDM demethylase inhibition (IC50). It counts as biochemical.

The nature of series [1]: Pharmacokinetic study iv/po. It counts as in vivo. As to conditions: Dose iv/po 5/10 mg/kg.
Another series addresses KDM6A (Homo sapiens, UniProt O15550). Description: KDM demethylase inhibition (IC50). It counts as biochemical.

The structures appear in SMILES notation. Where two headings read alike, the source gives them in different places.

KDM6B, sequence (O15054 whole entry): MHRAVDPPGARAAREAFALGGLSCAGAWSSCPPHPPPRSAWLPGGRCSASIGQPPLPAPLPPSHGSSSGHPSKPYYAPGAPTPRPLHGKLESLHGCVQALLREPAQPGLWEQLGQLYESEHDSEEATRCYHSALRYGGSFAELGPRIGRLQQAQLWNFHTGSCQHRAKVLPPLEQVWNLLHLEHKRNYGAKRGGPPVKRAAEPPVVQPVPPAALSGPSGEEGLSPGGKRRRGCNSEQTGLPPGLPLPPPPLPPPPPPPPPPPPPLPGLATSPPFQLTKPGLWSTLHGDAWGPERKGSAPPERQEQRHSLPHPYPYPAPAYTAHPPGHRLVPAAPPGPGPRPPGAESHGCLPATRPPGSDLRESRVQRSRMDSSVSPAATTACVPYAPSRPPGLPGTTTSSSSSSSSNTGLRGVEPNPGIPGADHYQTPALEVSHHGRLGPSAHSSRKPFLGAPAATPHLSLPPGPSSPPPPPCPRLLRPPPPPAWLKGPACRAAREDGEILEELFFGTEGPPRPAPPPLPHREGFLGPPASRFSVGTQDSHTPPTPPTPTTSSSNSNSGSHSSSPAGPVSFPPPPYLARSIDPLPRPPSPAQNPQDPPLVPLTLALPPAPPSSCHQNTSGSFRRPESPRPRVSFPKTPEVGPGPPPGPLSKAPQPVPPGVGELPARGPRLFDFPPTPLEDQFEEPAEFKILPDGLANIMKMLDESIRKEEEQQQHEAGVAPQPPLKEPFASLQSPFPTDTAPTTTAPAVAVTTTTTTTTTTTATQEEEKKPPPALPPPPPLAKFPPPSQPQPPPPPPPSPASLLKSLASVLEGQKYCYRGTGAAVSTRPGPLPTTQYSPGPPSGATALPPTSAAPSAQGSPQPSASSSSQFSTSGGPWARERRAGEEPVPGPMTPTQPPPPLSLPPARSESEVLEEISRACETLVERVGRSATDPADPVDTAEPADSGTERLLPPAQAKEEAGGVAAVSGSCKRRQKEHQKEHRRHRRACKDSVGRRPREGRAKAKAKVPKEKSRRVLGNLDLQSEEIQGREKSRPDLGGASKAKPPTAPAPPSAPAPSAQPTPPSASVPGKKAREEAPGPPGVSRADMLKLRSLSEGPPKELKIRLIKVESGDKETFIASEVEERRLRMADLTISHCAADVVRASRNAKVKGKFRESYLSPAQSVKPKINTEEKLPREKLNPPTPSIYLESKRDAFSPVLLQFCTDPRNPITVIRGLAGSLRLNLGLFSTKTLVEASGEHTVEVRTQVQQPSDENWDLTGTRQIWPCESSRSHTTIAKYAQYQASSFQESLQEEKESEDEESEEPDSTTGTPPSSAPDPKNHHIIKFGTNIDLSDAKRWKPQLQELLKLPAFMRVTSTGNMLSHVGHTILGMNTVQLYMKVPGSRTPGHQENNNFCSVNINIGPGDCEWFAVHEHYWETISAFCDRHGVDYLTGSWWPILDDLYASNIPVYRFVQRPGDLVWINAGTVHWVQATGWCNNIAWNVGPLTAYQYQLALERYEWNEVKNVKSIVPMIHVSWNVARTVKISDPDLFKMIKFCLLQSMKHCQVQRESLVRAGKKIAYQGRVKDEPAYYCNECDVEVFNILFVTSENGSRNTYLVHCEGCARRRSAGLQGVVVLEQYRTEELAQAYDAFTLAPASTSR
KDM6A, sequence (O15550 whole entry): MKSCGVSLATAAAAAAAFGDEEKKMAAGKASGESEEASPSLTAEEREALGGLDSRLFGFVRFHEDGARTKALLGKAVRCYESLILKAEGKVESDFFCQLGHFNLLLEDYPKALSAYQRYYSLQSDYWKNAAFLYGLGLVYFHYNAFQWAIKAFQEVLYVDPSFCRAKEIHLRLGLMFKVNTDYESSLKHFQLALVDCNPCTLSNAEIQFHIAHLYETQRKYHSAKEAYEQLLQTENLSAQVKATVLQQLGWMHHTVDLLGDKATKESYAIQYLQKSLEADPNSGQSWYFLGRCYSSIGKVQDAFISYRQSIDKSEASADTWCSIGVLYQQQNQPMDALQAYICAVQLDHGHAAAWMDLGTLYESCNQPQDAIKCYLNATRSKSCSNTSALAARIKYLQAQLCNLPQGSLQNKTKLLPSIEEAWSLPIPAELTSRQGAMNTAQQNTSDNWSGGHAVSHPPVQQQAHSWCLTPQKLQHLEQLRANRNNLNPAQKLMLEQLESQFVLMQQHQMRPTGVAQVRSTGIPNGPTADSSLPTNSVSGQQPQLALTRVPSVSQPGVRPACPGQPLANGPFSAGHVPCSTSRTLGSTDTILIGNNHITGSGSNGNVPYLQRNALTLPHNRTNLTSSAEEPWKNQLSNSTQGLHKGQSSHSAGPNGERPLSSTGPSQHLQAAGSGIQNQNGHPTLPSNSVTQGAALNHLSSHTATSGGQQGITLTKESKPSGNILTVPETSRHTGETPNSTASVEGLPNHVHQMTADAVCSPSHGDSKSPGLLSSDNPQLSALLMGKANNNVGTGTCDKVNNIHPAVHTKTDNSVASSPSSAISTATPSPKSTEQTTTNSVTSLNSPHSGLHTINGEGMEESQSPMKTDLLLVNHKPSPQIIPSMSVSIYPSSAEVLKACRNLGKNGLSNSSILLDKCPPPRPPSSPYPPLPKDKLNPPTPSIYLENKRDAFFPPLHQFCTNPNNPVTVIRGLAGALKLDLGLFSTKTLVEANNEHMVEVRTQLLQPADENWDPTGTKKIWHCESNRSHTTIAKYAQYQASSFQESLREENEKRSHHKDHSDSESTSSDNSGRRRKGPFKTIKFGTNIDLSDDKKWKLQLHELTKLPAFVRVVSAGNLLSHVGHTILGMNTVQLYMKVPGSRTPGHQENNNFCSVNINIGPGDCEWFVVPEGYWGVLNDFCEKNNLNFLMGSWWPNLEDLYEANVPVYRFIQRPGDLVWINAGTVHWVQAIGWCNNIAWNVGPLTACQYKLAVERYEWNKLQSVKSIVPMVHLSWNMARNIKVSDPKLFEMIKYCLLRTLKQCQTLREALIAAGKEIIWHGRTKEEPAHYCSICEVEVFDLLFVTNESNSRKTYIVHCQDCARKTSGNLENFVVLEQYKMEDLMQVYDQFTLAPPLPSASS

One may read the IC50 as the concentration that inhibits the measured activity by half. One may read the AUC as the area under the concentration-time curve, a measure of exposure. Low readings indicate less exposure, high ones more exposure. Regarding `CN(c1ccccc1)c1ccc2c(c1)CCC[C@H]2CNc1cnccc1C(=O)O` [Compound I, 3-({[(1R)-6-[methyl(phenyl)amino]-1,2,3,4-tetrahydronaphthalen-1-yl]methyl}amino)pyridine-4-carboxylic Acid], the IC50 against KDM6B was greater than 10 µM; against KDM2A, greater than 10 µM; on KDM4C (read-out: Compound I IC50), 0.035 µM; on KDM4C (read-out: IC50, demethylase activity), less than 0.105 µM; against KDM6A, greater than 10 µM. In addition, the “po 1/2” value in series [1] was determined as 2.57 h. Also, the Vd in series [1] (plasma, 5 mg/kg, read-out: Vz (mL/kg), apparent volume of distribution during terminal phase) was 666 mL/kg. For the same compound, the AUC in series [1] (plasma) stood at 10.4 µg·h/mL.

These data come from US20180290977A1, “KDM4 INHIBITORS” (Albert-Ludwigs-University Freiburg, priority 2017, published 2018).
